Here are results for four molecules from patent publication US7126676B2, “Spectral analysis of light scattered from clotting blood” (priority 2002, dated 2006).

Data set [1] deals with clotting native whole blood. Particulars: for Ratio of Post-treatment to Pre-treatment Value of Logistic Parameter B: two hours after ingestion, same subject.
In a further data set the test system is clotting. Conditions: cited from earlier work.
The conditions of data set [2]: rofecoxib-treated arm compared with naproxen; cited from earlier work.

Read-outs that look alike come from different tables or passages of the source.

As for `CC(=O)Oc1ccccc1C(=O)O` [Aspirin], the “Ratio of Post-treatment to Pre-treatment Value of Logistic Parameter B” value (shortened to “Ratio … of Logistic Parameter B”) in data set [1] (470 nm, Aspirin 325 mg single dose) came out at 4.48; in data set [1] (550 nm, Aspirin 325 mg single dose), 1.45; in data set [1] (610 nm, Aspirin 325 mg single dose), 2.18; in data set [1] (700 nm, Aspirin 325 mg single dose) it was 1.85.

Regarding `Cc1ccc(-c2cc(C(F)(F)F)nn2-c2ccc(S(N)(=O)=O)cc2)cc1` [Celecoxib], the “Ratio … of Logistic Parameter B” value in data set [1] (470 nm, Celecoxib 400 mg single dose) is 0.087; in data set [1] (550 nm, Celecoxib 400 mg single dose), 0.154; in data set [1] (610 nm, Celecoxib 400 mg single dose) it was 0.055; in data set [1] (700 nm, Celecoxib 400 mg single dose) it was 0.107.

As to `COc1ccc2cc([C@H](C)C(=O)O)ccc2c1` [Naproxen], the “Ratio … of Logistic Parameter B” value in data set [1] (470 nm, Naproxen 600 mg single dose) was 1.63; in data set [1] (550 nm, Naproxen 600 mg single dose) it was 0.03; in data set [1] (610 nm, Naproxen 600 mg single dose), 0.34; in data set [1] (700 nm, Naproxen 600 mg single dose), 0.28. Further, the “Effect on clotting as determined by the invention, in words” value was “aspirin-like effect” in data set [1] (at 470 nm) and “celecoxib-like effect” in data set [1] (at the other wavelengths (550, 610, 700 nm)).

On to `CS(=O)(=O)c1ccc(C2=C(c3ccccc3)C(=O)OC2)cc1` [rofecoxib], for which the “Effect on clotting as measured by routine techniques” value with clotting is on record as “Neither rofecoxib nor celecoxib has any effect on clotting”. Further, the “Incidence of thrombotic events” value in data set [2] is reported as “higher incidence of thrombotic events”.
